# Measurements reported in EP3095787A1, “[…] ACTIVE COMPOUNDS AS DAG-LIPASE INHIBITORS” (Universiteit Leiden, priority 2015, dated 2016).
# Entries after “also recorded” stand apart in the source; their conditions may differ.
# How the values were obtained:
# [1] = tested on: serine hydrolases; assay: Comparative and competitive gel ABPP selectivity in mouse brain membrane proteome (TAMRA-FP and MB064); format: biochemical; conditions: 10 µM; TAMRA-FP 500 nM and MB064 250 nM
# Method: For gel based ABPP experiments mouse brain proteome (2.0 mg/mL, 20 µL) was preincubated for 30 min with vehicle (DMSO) or compound to be tested in 0.5 µL DMSO at rt. And subsequently treated with 500 nM (final concentration) TAMRA-FP (TAMRA-FP was bought at Thermo Fischer) for 15 minutes at rt. The reactions were quenched with 10 µL standard 3 x SDS page sample buffer. The samples were directly loaded and resolved on SDS page gel (10 % acrylamide). The gels were scanned with a ChemiDoc MP sytem (Biorad, Cy 3 settings, 605/50 filter) and analyzed using Image Lab 4.1.
# To investigate the selectivity of compound 25 in the mouse brain proteome comparative and competitive ABPP was used with a broad-spectrum FP-based probe (TAMRA-FP) and the tailored DAGL-α ABP MB064. As a reference the widely used β-lactone-based DAGL-inhibitors THL and OMDM-188, two broad-spectrum covalent and irreversible serine hydrolase inhibitors, were firstly tested.
# [2] = tested on: Neuro2A cells; assay: Targeted lipidomics in Neuro2A cells; format: cell-based, mouse; conditions: in situ treatment 1h, 37 °C; n=4
# Method: To test the cellular activity of inventive compound 25, the inventor used Neuro2A cells, which is a mouse neuroblastoma cell line known to express both DAGL-α and DAGL-β. In a targeted lipidomics experiment the effect of inventive compound 25 on the cellular levels of 2-AG and anandamide was determined.
# Neuro2A cells were cultured as described above. Before inhibitor treatment, the culture medium was removed and the cells were washed with warm (37 °C) serum free medium (3x). The cells were treated with vehicle (DMSO) or inhibitor for 1h at 37 °C in serum free medium. […]
# Endocannabinoids were measured using a chip-based nano liquid chromatography (LC) system coupled to a triple quadrupole mass spectrometer. […]
# A 6440 Triple quadrupole equipped with a nonoESI source operating in positive mode (Agilent technologies, Walborn, Germany) was used for MS detection. […] Quantification was obtained using static MRM (multiple reaction monitoring) mode of the transistions at m/z 379.3 → 287.2 for 2AG, 348.3 → 62.2 for AEA and 387.3 → 294.2 for 2AGd8, 356.3 → 62.2 for AEAd8 (internal standards). […] Raw MS data were processes using mass hunter quantitative analysis work station (Agilent technologies). AEA and 2AG was quantified by using a matrix matched internal standard calibration curve. […]
compound,measurement,setting,value
"Cc1ccc(-c2cnc3nc(C(=O)CCCCCc4ccccc4)oc3c2)cc1 [Compound 25, 1-(6-(p-Tolyl)oxazolo[4,5-b]pyridin-2-yl)-6-phenylhexan-1-one]",labeling of other bands (selectivity),[1],excellent selectivity; also recorded: did not inhibit labeling of any other band
same,anandamide levels,[2],constant
same,basal 2-AG levels,[2],dose dependently decreased
